# Measured values published in patent publication US8247377B2, “Non-steroidal glucocorticoid inhibitors and their use in treating inflammation, allergy and auto-immune conditions” (Glaxo Group Limited, priority 2006, dated 2012).
# Columns and labels:
# Format in all cases: cell-based
# [1] = system: MMTV promoter; experiment: MMTV agonist assay in A549 MMTV cells; conditions: Homo sapiens, A549, 6 h, >85% = full agonist, >20% and <85% = partial or efficacy selective agonist, read-out: average maximum asymptote in the MMTV agonist assay
# Text: Human lung carcinoma A549 cell line (ECACC No. 86012804) has been stably transfected in house with a plasmid containing a renilla luciferase reporter with an MMTV promoter. Stimulation of the cell line with GR agonists results in intracellular signal transduction and ultimately translocation of GR into the nucleus. This activates the inserted DNA sequence resulting in transcription of the integrated luciferase gene, which is quantified using a light emission. The stably transfected cell line was grown as a monolayer in DMEM supplemented with FCS-HI (10%), Non-essential amino acids (1%), L-Glutamine (2 mM), Pen/Strep (1%) and Geneticin (50 mg/ml).
# A 90% confluent T175 flask of A549 MMTV cells was harvested by centrifugation for 5 min at 200 g, resuspended in assay buffer (DMEM supplemented with 10% FCS 2×HI, 2 mM Glutamax, Non essential amino acids and 25 mM HEPES) and diluted to 0.1×10^6/ml. 70 μl of cell solution was dispensed to each well of white Nunc 384-well plates, containing compound at the required concentration. Plates were incubated for 6 h at 37° C., 95% humidity, 5% CO2. Plates were equilibrated to room temperature for 1 h prior to the addition of 10 μl of Renilla substrate to each well of assay plates. The plates were covered to protect the reagents from light, and then incubated at room temperature for approximately 15 mins before reading them on a Viewlux. Dose response curves were constructed from which pEC50 and maximum asymptote values were estimated.
# [2] = molecular target: T1, progesterone receptor (Homo sapiens, UniProt P06401); experiment: Assay for progesterone receptor activity (CV-1 cells, PRb-BacMam/MMTV-BacMam); conditions: CV-1 cells transduced with PRb-BacMam and MMTV-BacMam; read-out: pEC50 progesterone receptor activity (converted)
# T1 construct: expressed in transfected cells; host or cells: CV-1 cells transduced with PRb-BacMam and MMTV-BacMam
# T1 sequence (P06401 1-933): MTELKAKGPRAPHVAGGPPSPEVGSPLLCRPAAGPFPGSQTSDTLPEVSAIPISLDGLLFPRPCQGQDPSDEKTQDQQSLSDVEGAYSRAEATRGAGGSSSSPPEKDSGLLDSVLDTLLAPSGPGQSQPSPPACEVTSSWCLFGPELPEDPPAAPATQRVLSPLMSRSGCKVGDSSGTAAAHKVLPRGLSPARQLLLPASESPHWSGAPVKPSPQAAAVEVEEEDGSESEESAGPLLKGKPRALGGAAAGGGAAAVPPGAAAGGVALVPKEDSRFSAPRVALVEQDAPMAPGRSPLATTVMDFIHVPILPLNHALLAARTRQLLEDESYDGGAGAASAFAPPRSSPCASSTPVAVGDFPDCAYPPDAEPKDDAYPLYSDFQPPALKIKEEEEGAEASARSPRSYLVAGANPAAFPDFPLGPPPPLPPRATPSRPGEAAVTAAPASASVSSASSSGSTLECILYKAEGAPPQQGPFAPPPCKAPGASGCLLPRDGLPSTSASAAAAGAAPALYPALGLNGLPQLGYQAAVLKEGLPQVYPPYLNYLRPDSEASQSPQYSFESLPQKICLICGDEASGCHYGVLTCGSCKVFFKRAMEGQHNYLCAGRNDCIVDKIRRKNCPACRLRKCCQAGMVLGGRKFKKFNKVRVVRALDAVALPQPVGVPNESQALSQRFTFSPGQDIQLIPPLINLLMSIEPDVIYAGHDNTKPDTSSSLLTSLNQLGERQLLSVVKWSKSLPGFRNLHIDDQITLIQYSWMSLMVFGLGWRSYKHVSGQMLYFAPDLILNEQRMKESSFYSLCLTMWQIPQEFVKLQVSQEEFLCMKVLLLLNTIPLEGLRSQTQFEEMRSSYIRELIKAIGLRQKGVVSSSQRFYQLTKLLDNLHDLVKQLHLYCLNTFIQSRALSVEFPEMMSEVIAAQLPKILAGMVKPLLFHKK
# Outline: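 CV-1 cells co-transduced with PRb-BacMam and MMTV-BacMam (10% each), seeded onto compounds in DMEM with 10% serum. After 24 h, luminescence was read with Steadylite. pEC50 values were estimated from dose-response curves.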
# [3] = system: NFκB; experiment: NFκB agonist assay in A549 SPAP cells; conditions: Homo sapiens; for Emax: A549, A549 SPAP cells, >85% = full agonist, ≧20% = partial or full agonist, read-out: average maximum asymptote in the NFkB assay; for IC50: A549 SPAP cells, TNFα 3.2 ng/ml, read-out: pIC50 for the NFkB assay (converted);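 on average maximum asymptote in the NFkB assay: maximum inhibition of the TNFα-induced NFκB-driven signal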
# Outline: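 A549 cells stably carrying an ELAM/NFκB-driven SPAP reporter were pre-incubated 1 h at 37° C with compound, then stimulated with TNFα (3.2 ng/ml final) for 15 h. SPAP activity read colorimetrically with pNPP at 405 nm after ~1 h; pIC50 estimated from dose-response curves.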
Compound,Emax [1] [%],EC50 [2] [nM],Emax [3] [%],IC50 [3] [nM]
"CN(CC(O)(CNC(=O)c1cnn(-c2ccc(F)cc2)c1N)C(F)(F)F)C(=O)c1c(Cl)cccc1Cl (racemic) [Example 1 (racemic), 5-Amino-N-(2-{[[(2,6-dichlorophenyl)carbonyl](methyl)amino]methyl}-3,3,3-trifluoro-2-hydroxypropyl)-1-(4-fluorophenyl)-1H-pyrazole-4-carboxamide]",> 85,> 1000,> 85,< 1000
"CCN(CC(O)(CNC(=O)c1cnn(-c2ccc(F)cc2)c1N)C(F)(F)F)C(=O)c1c(Cl)cccc1Cl (racemic) [Example 2 (racemic), 5-Amino-N-(2-{[[(2,6-dichlorophenyl)carbonyl](ethyl)amino]methyl}-3,3,3-trifluoro-2-hydroxypropyl)-1-(4-fluorophenyl)-1H-pyrazole-4-carboxamide]",> 85,> 1000,> 85,< 1000
"Nc1c(C(=O)NCC(O)(CNC(=O)c2c(Cl)cccc2Cl)C(F)(F)F)cnn1-c1ccc(F)cc1 (racemic) [Example 3 (racemic), 5-Amino-N-[2-({[(2,6-dichlorophenyl)carbonyl]amino}methyl)-3,3,3-trifluoro-2-hydroxypropyl]-1-(4-fluorophenyl)-1H-pyrazole-4-carboxamide]",20 to 85,> 1000,≥ 20,< 1000
"CCN(CC(O)(CNC(=O)c1cnn(-c2ccc(F)cc2)c1N)C(F)(F)F)C(=O)c1c(F)cccc1Cl (racemic) [Example 4 (racemic), 5-Amino-N-(2-{[[(2-chloro-6-fluorophenyl)carbonyl](ethyl)amino]methyl}-3,3,3-trifluoro-2-hydroxypropyl)-1-(4-fluorophenyl)-1H-pyrazole-4-carboxamide]",> 85,> 1000,> 85,< 1000
"CCN(CC(O)(CNC(=O)c1cnn(-c2ccc(F)cc2)c1N)C(F)(F)F)C(=O)c1c(F)cccc1F (racemic) [Example 5 (racemic), 5-Amino-N-(2-{[[(2,6-difluorophenyl)carbonyl](ethyl)amino]methyl}-3,3,3-trifluoro-2-hydroxypropyl)-1-(4-fluorophenyl)-1H-pyrazole-4-carboxamide]",> 85,> 1000,> 85,< 1000
"Nc1c(C(=O)NCC(O)(CNC(=O)c2c(F)cccc2Cl)C(F)(F)F)cnn1-c1ccc(F)cc1 (racemic) [Example 7 (racemic), 5-Amino-N-[2-({[(2-chloro-6-fluorophenyl)carbonyl]amino}methyl)-3,3,3-trifluoro-2-hydroxypropyl]-1-(4-fluorophenyl)-1H-pyrazole-4-carboxamide]",20 to 85,> 1000,≥ 20,< 1000
"CN(CC(O)(CNC(=O)c1cnn(-c2ccc(F)cc2)c1N)C(F)(F)F)C(=O)c1c(F)cccc1F (racemic) [Example 8 (racemic), 5-Amino-N-(2-{[[(2,6-difluorophenyl)carbonyl](methyl)amino]methyl}-3,3,3-trifluoro-2-hydroxypropyl)-1-(4-fluorophenyl)-1H-pyrazole-4-carboxamide]",> 85,> 1000,> 85,< 1000
"CN(CC(O)(CNC(=O)c1cnn(-c2ccc(F)cc2)c1N)C(F)(F)F)C(=O)c1c(F)cccc1Cl (racemic) [Example 9 (racemic), 5-Amino-N-(2-{[[(2-chloro-6-fluorophenyl)carbonyl](methyl)amino]methyl}-3,3,3-trifluoro-2-hydroxypropyl)-1-(4-fluorophenyl)-1H-pyrazole-4-carboxamide]",> 85,> 1000,> 85,< 1000
"CCN(CC(O)(CNC(=O)c1cnn(-c2ccc(F)cc2)c1N)C(F)(F)F)C(=O)c1ccccc1S(C)(=O)=O (racemic) [Example 10 (racemic), 5-Amino-N-{2-[(ethyl{[2-(methylsulfonyl)phenyl]carbonyl}amino)methyl]-3,3,3-trifluoro-2-hydroxypropyl}-1-(4-fluorophenyl)-1H-pyrazole-4-carboxamide]",> 85,> 1000,> 85,< 1000
"Nc1c(C(=O)NCC(O)(CNC(=O)c2c(Br)cccc2Br)C(F)(F)F)cnn1-c1ccc(F)cc1 (racemic) [Example 11 (racemic), 5-Amino-N-[2-({[(2,6-dibromophenyl)carbonyl]amino}methyl)-3,3,3-trifluoro-2-hydroxypropyl]-1-(4-fluorophenyl)-1H-pyrazole-4-carboxamide]",20 to 85,> 1000,≥ 20,< 1000
"Nc1c(C(=O)NCC(O)(CNC(=O)c2c(Cl)cccc2Br)C(F)(F)F)cnn1-c1ccc(F)cc1 (racemic) [Example 12 (racemic), 5-Amino-N-[2-({[(2-bromo-6-chlorophenyl)carbonyl]amino}methyl)-3,3,3-trifluoro-2-hydroxypropyl]-1-(4-fluorophenyl)-1H-pyrazole-4-carboxamide]",20 to 85,> 1000,≥ 20,< 1000
"Nc1c(C(=O)NCC(O)(CNC(=O)c2c(F)cccc2Br)C(F)(F)F)cnn1-c1ccc(F)cc1 (racemic) [Example 13 (racemic), 5-Amino-N-[2-({[(2-bromo-6-fluorophenyl)carbonyl]amino}methyl)-3,3,3-trifluoro-2-hydroxypropyl]-1-(4-fluorophenyl)-1H-pyrazole-4-carboxamide]",20 to 85,> 1000,≥ 20,< 1000
"Nc1c(C(=O)NCC(O)(CNC(=O)c2c(Cl)cccc2OC(F)F)C(F)(F)F)cnn1-c1ccc(F)cc1 (racemic) [Example 14 (racemic), 5-Amino-N-(2-{[({2-chloro-6-[(difluoromethyl)oxy]phenyl}carbonyl)amino]methyl}-3,3,3-trifluoro-2-hydroxypropyl)-1-(4-fluorophenyl)-1H-pyrazole-4-carboxamide]",20 to 85,> 1000,≥ 20,< 1000
"Nc1c(C(=O)NCC(O)(CNC(=O)c2c(C(F)(F)F)cccc2C(F)(F)F)C(F)(F)F)cnn1-c1ccc(F)cc1 (racemic) [Example 15 (racemic), 5-amino-N-{2-[({[2,6-bis(trifluoromethyl)phenyl]carbonyl}amino)methyl]-3,3,3-trifluoro-2-hydroxypropyl}-1-(4-fluorophenyl)-1H-pyrazole-4-carboxamide]",20 to 85,> 1000,≥ 20,< 1000
